Tests used:
Type in all cases: in vivo, human
[1] = system: adult subjects with schizophrenia; assay: BPRS total score, Clinical Study One; conditions: ITT population
Procedure: There were five treatment groups in this study. […] Study medication was administered once daily. After Baseline measurements were performed, the titration phase was begun. Bifeprunox treated subjects were titrated up to 5 mg, 10 mg or 20 mg according to a standardized titration schedule (Day 1: 0.125 mg, Day 2: 0.25 mg, Day 3: 0.5 mg, Day 4: 1.0 mg, Day 5: 2.0 mg, Day 6: 5.0 mg, Day 7: 10.0 mg, Day 8: 20 mg). When the assigned dose was reached, subjects were maintained at that dose for the remainder of the six-week treatment period.
The change in the Positive and Negative Symptom Scale (PANSS) total score, from baseline to endpoint, was the primary outcome measure. Secondary efficacy measures included: PANSS positive, PANSS negative, PANSS general psychopathology (GPP) score, PANSS-derived Brief Psychiatric Rating Scale (BPRS) score, Clinical Global Impressions-Severity of Illness (CGI-S), CGI-Improvement (CGI-I) scores, and responder rates. Safety and tolerability evaluations included extrapyramidal symptoms (EPS), weight gain, lipid profile, and serum prolactin.

[2] = system: adult subjects with schizophrenia; assay: PANSS positive symptom subscale score, Clinical Study Three; conditions: LOCF, ITT; for PANSS Positive Symptom Subscale Score, Trt Effect (bifeprunox—placebo): ANCOVA
Source text: SECONDARY OBJECTIVES To assess the efficacy of bifeprunox in treating schizophrenia using the Positive Symptom sub-scale score of the PANSS, the Negative Symptom sub-scale score of the PANSS, the General Psychopathology sub-scale of the PANSS, Brief Psychiatric Rating Scale (BPRS) total score derived from the PANSS, BPRS psychosis score derived from the PANSS, the Clinical Global Impression Severity of Illness score (CGI-S), the Clinical Global Impression Improvement score (CGI-I), CGI-I responder rate, PANSS responder rate based on the PANSS total score, Calgary Depression Scale for Schizophrenia (CDSS), and Subject Satisfaction rating.
There were four treatment arms in this study, approximately 144 subjects per arm. […] After completing the Single-Blind Placebo Lead-in Period of at least three days, bifeprunox-treated subjects were titrated from 0.25 mg up to 20 mg/day or 30 mg/day according to a standardized titration scheme over a seven- or eight-day period, respectively. When the assigned dose was reached, subjects were maintained at that dose for the remainder of the six week treatment period. […] Subjects were hospitalized (if not already inpatients) after eligibility for study entry was verified, starting from the Screening Visit until at least 10 days after Baseline. Subjects could be hospitalized longer than 10 days if considered medically necessary by the Investigator. Rating scale assessments for efficacy and abnormal movement disorders were done weekly except for Week 5. […] Subject satisfaction with study medication was assessed at Week 6.

[3] = system: adult subjects with schizophrenia; assay: PANSS responder rate, Clinical Study Two; conditions: for PANSS 20% responder rate / PANSS 30% responder rate: Endpoint LOCF; for PANSS Responder at Endpoint, 30% Definition Responder, No / PANSS Responder at Endpoint, 30% Definition Responder, Yes / PANSS Responder at Week 6/Endpoint, 20% Definition, No / PANSS Responder at Week 6/Endpoint, 20% Definition, Yes: LOCF, ITT
Procedure: Notable differences were also observed between the 30 mg bifeprunox group and placebo for the change from baseline to endpoint in PANSS general psychopathology subscale score, BPRS total score, BPRS psychosis cluster score, PANSS responder rate, and CGI-I responder rate. […] A CGI-I responder refers to a subject who was categorized as “very much improved” or “much improved” in the CGI Global Improvement scale at endpoint. […]
Subjects who completed this study had the option to continue in the long-term. […] Risperidone-treated subjects were titrated from 2 mg to 6 mg daily over a three-day period and were subsequently maintained at 6 mg/day for the remainder of the treatment period. […] Blood samples were also obtained at Screening/Baseline, Week 3, and Week 6 for clinical laboratory assessments. […]

[4] = Bifeprunox 10 mg, Endpoint LOCF
[5] = Bifeprunox 20 mg, Endpoint LOCF
[6] = Bifeprunox 20 mg, Week 6/Endpoint
[7] = Bifeprunox 30 mg, Week 6/Endpoint

SMILES: O=c1[nH]c2cccc(N3CCN(Cc4cccc(-c5ccccc5)c4)CC3)c2o1 [Bifeprunox, 7-[4-([1,1′-biphenyl]-3-ylmethyl)-1-piperazinyl]-2(3H)-benzoxazolone]
- Change from Baseline in BPRS Total Score, Mean (S.D.) ([1]; Bifeprunox 5 mg, Week 3, LOCF): −5.2 (9.7)
- Change from Baseline in BPRS Total Score, Median ([1]; Bifeprunox 5 mg, Week 3, LOCF): −5
- Change from Baseline in BPRS Total Score, Mean (S.D.) ([1]; Bifeprunox 5 mg, Week 4, LOCF): −5.6 (10.2)
- Change from Baseline in BPRS Total Score, Median ([1]; Bifeprunox 5 mg, Week 4, LOCF): −5
- Change from Baseline in BPRS Total Score, Mean (S.D.) [1, 4]: −3.4 (11.5)
- Change from Baseline in BPRS Total Score, Median [1, 4]: −2
- Change from Baseline in BPRS Total Score, Trt Effect (bifeprunox—placebo) [1, 4]: −0.6
- Change from Baseline in BPRS Total Score, Mean (S.D.) ([1]; Bifeprunox 10 mg, Week 1, LOCF): −2.0 (7.2)
- Change from Baseline in BPRS Total Score, Median ([1]; Bifeprunox 10 mg, Week 1, LOCF): −1
- Change from Baseline in BPRS Total Score, Mean (S.D.) ([1]; Bifeprunox 10 mg, Week 2, LOCF): −3.1 (9.3)
- Change from Baseline in BPRS Total Score, Median ([1]; Bifeprunox 10 mg, Week 2, LOCF): −3
- Change from Baseline in BPRS Total Score, Mean (S.D.) ([1]; Bifeprunox 10 mg, Week 3, LOCF): −3.3 (10.9)
- Change from Baseline in BPRS Total Score, Median ([1]; Bifeprunox 10 mg, Week 3, LOCF): −2
- Change from Baseline in BPRS Total Score, Mean (S.D.) ([1]; Bifeprunox 10 mg, Week 4, LOCF): −3.1 (10.7)
- Change from Baseline in BPRS Total Score, Median ([1]; Bifeprunox 10 mg, Week 4, LOCF): −3
- Change from Baseline in BPRS Total Score, Mean (S.D.) [1, 5]: −7.6 (10.1)
- Change from Baseline in BPRS Total Score, Median [1, 5]: −8
- Change from Baseline in BPRS Total Score, Trt Effect (bifeprunox—placebo) [1, 5]: −3.5
- Change from Baseline in BPRS Total Score, Mean (S.D.) ([1]; Bifeprunox 20 mg, Week 1, LOCF): −4.3 (7.3)
- Change from Baseline in BPRS Total Score, Median ([1]; Bifeprunox 20 mg, Week 1, LOCF): −3
- Change from Baseline in BPRS Total Score, Mean (S.D.) ([1]; Bifeprunox 20 mg, Week 2, LOCF): −6.1 (8.8)
- Change from Baseline in BPRS Total Score, Median ([1]; Bifeprunox 20 mg, Week 2, LOCF): −7
- Change from Baseline in BPRS Total Score, Mean (S.D.) ([1]; Bifeprunox 20 mg, Week 3, LOCF): −7.5 (9.1)
- Change from Baseline in BPRS Total Score, Median ([1]; Bifeprunox 20 mg, Week 3, LOCF): −8
- Change from Baseline in BPRS Total Score, Mean (S.D.) ([1]; Bifeprunox 20 mg, Week 4, LOCF): −7.7 (9.7)
- Change from Baseline in BPRS Total Score, Median ([1]; Bifeprunox 20 mg, Week 4, LOCF): −8
- Change from Baseline in PANSS Positive Symptom Subscale Score, Mean (SD) ([2]; Bifeprunox 20 mg, Week 1): −1.6 (3.7)
- Change from Baseline in PANSS Positive Symptom Subscale Score, Median ([2]; Bifeprunox 20 mg, Week 1): −2
- Change from Baseline in PANSS Positive Symptom Subscale Score, Mean (SD) ([2]; Bifeprunox 20 mg, Week 2): −3.0 (4.7)
- Change from Baseline in PANSS Positive Symptom Subscale Score, Median ([2]; Bifeprunox 20 mg, Week 2): −3
- Change from Baseline in PANSS Positive Symptom Subscale Score, Mean (SD) ([2]; Bifeprunox 20 mg, Week 3): −3.8 (5.2)
- Change from Baseline in PANSS Positive Symptom Subscale Score, Median ([2]; Bifeprunox 20 mg, Week 3): −3
- Change from Baseline in PANSS Positive Symptom Subscale Score, Mean (SD) ([2]; Bifeprunox 20 mg, Week 4): −4.2 (5.7)
- Change from Baseline in PANSS Positive Symptom Subscale Score, Median ([2]; Bifeprunox 20 mg, Week 4): −4
- Change from Baseline in PANSS Positive Symptom Subscale Score, Mean (SD) [2, 6]: −4.3 (6.1)
- Change from Baseline in PANSS Positive Symptom Subscale Score, Median [2, 6]: −4
- PANSS Positive Symptom Subscale Score, Trt Effect (bifeprunox—placebo) [2, 6]: −1.1
- Change from Baseline in PANSS Positive Symptom Subscale Score, Mean (SD) ([2]; Bifeprunox 30 mg, Week 1): −2.0 (3.8)
- Change from Baseline in PANSS Positive Symptom Subscale Score, Median ([2]; Bifeprunox 30 mg, Week 1): −2
- Change from Baseline in PANSS Positive Symptom Subscale Score, Mean (SD) ([2]; Bifeprunox 30 mg, Week 2): −2.8 (5.1)
- Change from Baseline in PANSS Positive Symptom Subscale Score, Median ([2]; Bifeprunox 30 mg, Week 2): −3
- Change from Baseline in PANSS Positive Symptom Subscale Score, Mean (SD) ([2]; Bifeprunox 30 mg, Week 3): −3.6 (6.0)
- Change from Baseline in PANSS Positive Symptom Subscale Score, Median ([2]; Bifeprunox 30 mg, Week 3): −4
- Change from Baseline in PANSS Positive Symptom Subscale Score, Mean (SD) ([2]; Bifeprunox 30 mg, Week 4): −4.0 (6.3)
- Change from Baseline in PANSS Positive Symptom Subscale Score, Median ([2]; Bifeprunox 30 mg, Week 4): −4
- Change from Baseline in PANSS Positive Symptom Subscale Score, Mean (SD) [2, 7]: −4.2 (6.8)
- Change from Baseline in PANSS Positive Symptom Subscale Score, Median [2, 7]: −5
- PANSS Positive Symptom Subscale Score, Trt Effect (bifeprunox—placebo) [2, 7]: −0.7
- PANSS 20% responder rate ([3]; bifeprunox 30 mg): 36%
- PANSS 30% responder rate ([3]; bifeprunox 30 mg): 24%
- PANSS Responder at Endpoint, 30% Definition Responder, No ([3]; bifeprunox 30 mg): 106 (76%) n (%)
- PANSS Responder at Endpoint, 30% Definition Responder, Yes ([3]; bifeprunox 30 mg): 34 (24%) n (%)
- PANSS Responder at Week 6/Endpoint, 20% Definition, No ([3]; bifeprunox 30 mg): 89 (64%) n (%)
- PANSS Responder at Week 6/Endpoint, 20% Definition, Yes ([3]; bifeprunox 30 mg): 51 (36%) n (%)
- PANSS 20% responder rate ([3]; bifeprunox 40 mg): 30%
- PANSS 30% responder rate ([3]; bifeprunox 40 mg): 22%
- PANSS Responder at Endpoint, 30% Definition Responder, No ([3]; bifeprunox 40 mg): 110 (78%) n (%)
- PANSS Responder at Endpoint, 30% Definition Responder, Yes ([3]; bifeprunox 40 mg): 31 (22%) n (%)
- PANSS Responder at Week 6/Endpoint, 20% Definition, No ([3]; bifeprunox 40 mg): 99 (70%) n (%)
- PANSS Responder at Week 6/Endpoint, 20% Definition, Yes ([3]; bifeprunox 40 mg): 42 (30%) n (%)
